From publication PMC12332667, “Role of Structural Modifications in Peptidomimetic Compounds as Potential Antimicrobial Agents against Staphylococcus aureus and Streptococcus pyogenes: Balancing Bioavailability, Safety, and Antimicrobial Activity” (ACS Omega, 2025)
Like-named read-outs stand apart in the source and are kept apart here.

Key:
E. coli ATCC 25922 = test: MIC/MBC broth microdilution, E. coli; assay type: cell-based, Escherichia coli
Procedure, shortened: (§1)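 Bacteria inoculated at about 10^5 CFU/mL in BHI broth and incubated 18 h at 37 °C with serial dilutions of peptidomimetics, NCCLS microdilution format. MBC taken as lowest concentration leaving no more than 3 colonies (≥99.9% kill); MIC as lowest concentration without obvious growth (≥90% of untreated); solvent controls included.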

S. intemrdius c.i. = test: MIC/MBC broth microdilution, S. intermedius; assay type: cell-based, Staphylococcus intermedius; details: Staphylococcus intermedius
Procedure, shortened: as §1

S. pyogenes ATCC 19615 = test: MIC/MBC broth microdilution, S. pyogenes; assay type: cell-based, Streptococcus pyogenes; details: for MBC: read-out: MBC
Procedure, shortened: as §1

S. agalactiae ATCC 27956 = test: MIC/MBC broth microdilution, S. agalactiae; assay type: cell-based, Streptococcus agalactiae; details: Streptococcus agalactiae, ATCC27956, S. agalactiae; for MBC: read-out: MBC; for MIC: read-out: MIC
Procedure, shortened: as §1

S. schleiferi c.i. = test: MIC/MBC broth microdilution, S. schleiferi; assay type: cell-based, Staphylococcus schleiferi; details: Staphylococcus schleiferi; for MBC: read-out: MBC; for MIC: read-out: MIC
Procedure, shortened: as §1

S. aureus ATCC 43300 = test: MIC/MBC broth microdilution, S. aureus; assay type: cell-based, Staphylococcus aureus; details: S. aureus
E. faecalis c.i. = test: MIC/MBC broth microdilution, E. faecalis; assay type: cell-based, Enterococcus faecalis
Procedure, shortened: as §1

[1] = system: primary human keratinocytes; design: method as in PMID 28110818; details: concentrations up to 50 μg/mL; reference number not given, probably ref 22; cited from earlier work
P. vulgaris ATCC 6896 = test: MIC/MBC broth microdilution, P. vulgaris; assay type: cell-based, Proteus vulgaris
Procedure, shortened: as §1

[2] = system: K. pneumoniae ATCC 700603; test: MIC/MBC broth microdilution, K. pneumoniae; assay type: cell-based
Procedure, shortened: as §1

S. mutans c.i. = test: MIC/MBC broth microdilution, S. mutans; assay type: cell-based, Streptococcus mutans
Procedure, shortened: as §1

S. cohnii c.i. = test: MIC/MBC broth microdilution, S. cohnii; assay type: cell-based, Staphylococcus cohnii; details: Staphylococcus cohnii; for MIC: read-out: MIC
Procedure, shortened: as §1

P. aeruginosa ATCC 10145 = test: MIC/MBC broth microdilution, P. aeruginosa; assay type: cell-based
Procedure, shortened: as §1

CC(C)C[C@H](NC(=O)[C@H](CCCNC(=N)N)NC(=O)OCc1ccccc1)C(=O)N[C@H](CNC(=O)/C=C/c1ccccc1)C(C)C [Compound A-20]
8 mg/L: MIC (S. pyogenes ATCC 19615; S. pyogenes, H2O) | MIC (S. pyogenes ATCC 19615; S. pyogenes, water additive EtOH) | MBC (S. pyogenes ATCC 19615; Streptococcus pyogenes, ATCC19615, S. pyogenes, water additive DMSO) | MIC (S. pyogenes ATCC 19615; Streptococcus pyogenes, ATCC19615, S. pyogenes, water additive DMSO, read-out: MIC) | MBC (S. schleiferi c.i.; water additive DMSO) | MIC (S. schleiferi c.i.; water additive DMSO)
128 mg/L: MIC (S. agalactiae ATCC 27956; H2O) | MBC (S. agalactiae ATCC 27956; water additive EtOH) | MIC (E. faecalis c.i.; Enterococcus faecalis, H2O, read-out: MIC) | MIC (S. cohnii c.i.; H2O)
256 mg/L: MIC (E. coli ATCC 25922; Escherichia coli, ATCC25922, H2O, read-out: MIC) | MIC (E. coli ATCC 25922; water additive DMSO) | MIC (E. coli ATCC 25922; water additive EtOH) | MBC (S. agalactiae ATCC 27956; H2O) | MBC (E. faecalis c.i.; Enterococcus faecalis, H2O, read-out: MBC) | MBC (E. faecalis c.i.; water additive DMSO) | MBC (E. faecalis c.i.; water additive EtOH)
64 mg/L: MBC (S. intemrdius c.i.; H2O) | MBC (S. intemrdius c.i.; water additive EtOH) | MBC (S. agalactiae ATCC 27956; water additive DMSO) | MIC (S. agalactiae ATCC 27956; water additive EtOH) | MBC (S. cohnii c.i.; H2O, read-out: MBC) | MIC (S. cohnii c.i.; water additive DMSO) | MIC (S. cohnii c.i.; water additive EtOH)
512 mg/L: MBC (E. coli ATCC 25922; Escherichia coli, ATCC25922, H2O, read-out: MBC) | MBC (E. coli ATCC 25922; water additive DMSO) | MBC (E. coli ATCC 25922; water additive EtOH)
16 mg/L: MIC (S. intemrdius c.i.; water additive DMSO) | MBC (S. pyogenes ATCC 19615; Streptococcus pyogenes, ATCC19615, S. pyogenes, H2O) | MBC (S. pyogenes ATCC 19615; Streptococcus pyogenes, ATCC19615, S. pyogenes, water additive EtOH) | MBC (S. schleiferi c.i.; H2O) | MIC (S. schleiferi c.i.; H2O) | MBC (S. schleiferi c.i.; water additive EtOH) | MIC (S. schleiferi c.i.; water additive EtOH) | MIC (S. aureus ATCC 43300; water additive DMSO) | MIC (S. aureus ATCC 43300; water additive EtOH) | MIC (S. aureus ATCC 43300; Staphylococcus aureus, ATCC43300, H2O, read-out: MIC) | MIC (S. mutans c.i.; Streptococcus mutans, H2O, read-out: MIC) | MIC (S. mutans c.i.; water additive DMSO) | MIC (S. mutans c.i.; water additive EtOH)
no impact on the proliferation: impact on proliferation [1]
> 512 mg/L: MIC (P. vulgaris ATCC 6896; Proteus vulgaris, ATCC6896, H2O, read-out: MIC) | MIC (P. vulgaris ATCC 6896; water additive DMSO) | MIC (P. vulgaris ATCC 6896; water additive EtOH) | MIC ([2]; Klebsiella pneumoniae, ATCC700603, H2O, read-out: MIC) | MIC ([2]; water additive DMSO) | MIC ([2]; water additive EtOH) | MIC (P. aeruginosa ATCC 10145; Pseudomonas aeruginosa, ATCC10145, H2O, read-out: MIC) | MIC (P. aeruginosa ATCC 10145; water additive DMSO) | MIC (P. aeruginosa ATCC 10145; water additive EtOH)
32 mg/L: MIC (S. intemrdius c.i.; H2O) | MBC (S. intemrdius c.i.; water additive DMSO) | MIC (S. intemrdius c.i.; water additive EtOH) | MIC (S. agalactiae ATCC 27956; water additive DMSO) | MBC (S. aureus ATCC 43300; water additive DMSO) | MBC (S. aureus ATCC 43300; water additive EtOH) | MBC (S. aureus ATCC 43300; Staphylococcus aureus, ATCC43300, H2O, read-out: MBC)
